# Data reported in patent US20220107328A1, “METHODS OF TREATING LIVER DISEASES” (Camp4 Therapeutics Corporation, priority 2018, published 2022).
# Experiments:
# PNPLA3 mRNA [1] = test: qRT-PCR of PNPLA3 mRNA in compound-treated mouse hepatocytes; format: cell-based
# Method: Analysis of the fold changes in expression as measured by qRT-PCR were performed using the technique below. The control was DMSO, and the treatment was the selected compound (CPD). The internal control was GAPDH or B-Actin (or otherwise indicated), and the gene of interest is the target. First, the averages of the 4 conditions were calculated for normalization: DMSO:GAPDH, DMSO:Target, CPD: GAPDH, and CPD:Target. Next, the ΔCT of both control and treatment were calculated to normalize to internal control (GAPDH) using (DMSO:Target)−(DMSO:GAPDH)=ΔCT control and (CPD:Target)−(CPD: GAPDH)=ΔCT experimental. Then, the ΔΔCT was calculated by ΔCT experimental−ΔCT control. The Expression Fold Change (or Relative Quantification, abbreviated as RQ) was calculated by 2−(ΔΔCT) (2-fold expression change was shown by RNA-Seq results provided herein).
# Compounds were tested at concentrations ranging from 0.01 μM to 50 μM. […] PNPLA3 levels were normalized to the level of a house keeping gene ACTB.
# [2] = system: ANGPTL3 mRNA in mouse liver; test: High sucrose diet mouse dose response study, liver ANGPTL3 mRNA; format: in vivo; conditions: HS diet mice, 6 hours post dose
# [3] = system: triglyceride content in HepG2 cells; test: AdipoRed staining and triglyceride quantification of lipid droplet fraction in HepG2 cells; format: cell-based; conditions: 72 hours; for TG (nmol/ug protein) (±Standard Deviation): lipid droplet fraction
# Method: HepG2 cells were treated with OSI-027 as described in Example 1. DMSO was used as a control. After treatment, the cells were stained with the AdipoRedTM Assay Reagent (cat #PT-7009) according to the manufacturer's instructions. Parallel treatment samples were processed for triglyceride quantification. For triglyceride quantification, HepG2 cells were treated with OSI-027 for 72 hours. Cells were collected and the lipid droplet (LD) fraction of the cell lysate enriched using the lipid droplet isolation kit (Cell Biolabs Inc., #[…]) per the manufacturer's instructions. The triglyceride content of the LD-enriched fraction measured using a Triglyceride Quantification Kit (Biovision Inc., #K622) per manufacturer's protocol, with a fluorimetric read-out.
# [4] = Serum glucose quantification in mice; format: in vivo, mouse
# Method: Mouse 7-8 week old C57BL/6J mice were divided into 9 groups. Each group had 8 male mice. All mice were given a high sucrose diet for 10 days (Diet no. 901683; 74% kCal from sucrose. […] Food was removed at the start of the light cycle, about 7 am, except on the last day, when food was left in the cage until termination. On day 7-10, mice were administered daily (QD) via oral gavage, candidate compounds at a volume of 10 mL/kg with the compound in vehicle solution (0.5% methylcellulose/0.2% tween20). Vehicle alone was administered to control group 1. OSI-027 was administered at 25 mg/kg, 10 mg/kg, 5 mg/kg, and 2 mg/kg to groups 2-5. […] The treatment was administered in the evening on Days 7 to 10 and in the morning on Day 11, starting at 5 am. On Day 11, mice were terminated 4 hours post last dose at 9 am, for a total of 5 doses of each candidate compound. Mice were weighed 2×/week until Day 11. Liver and blood samples were collected after mice were terminated. Liver samples were process for mRNA extraction as previously described. Blood samples were processed for serum collection. […] Serum glucose levels were measured in a single-reagent coupled-enzyme assay, against a glucose standard curve, colorimetrically. The glucose assay reagent was prepared as follows: one capsule of glucose oxidase/peroxidase (Sigma, cat #G3660-1CAP) was dissolved in 19.6 ml of deionized water. Separately, one vial of O-Dianisidine reagent (Sigma, cat #D2679) was dissolved in 0.5 ml of deionized water, 0.4 ml of the O-Dianisidine reagent was added into the enzyme mix to make 20 ml of 2× Glucose assay reagent. The glucose assay reagent was made fresh prior to running the assay. […] A no glucose control was included as a reagent blank. […] The reaction was incubated at 37° C. for 30 min. 100 μl of 2N sulfuric acid was then added to quench the reaction. The color developed was read spectrophotometrically at 540 nm. The amount of glucose in the samples were determined based on the parameters of the linear fit obtained from the glucose standard curve.
# PNPLA3 mRNA [5] = test: qRT-PCR of PNPLA3 mRNA in human primary hepatic stellate cells; format: cell-based; conditions: for Relative PNPLA3 level vs Untreated (±Standard Deviation): normalized to GAPDH; for PNPLA3 expression in stellate cells from different donors (in words): donors I/I and M/M, eight concentrations
# [6] = system: PCSK9 mRNA in mouse liver; test: High sucrose diet mouse dose response study, liver PCSK9 mRNA; format: in vivo; conditions: HS diet mice, 6 hours post dose
# Method: (§1) C57BL/6J mice were divided into 14 groups. Each group had 6 male mice. All mice were given an HS diet at night on a synchronized schedule. […] The animals received no food at night on Day 10.
# (§2) Mouse liver tissues were pulverized in liquid nitrogen and aliquoted into small microtubes. TRIzol (Invitrogen Cat #15596026) was added to the tubes to facilitate cell lysis from tissue samples. The TRIzol solution containing the disrupted tissue was then centrifuged and the supernatant phase was collected. Total RNA was extracted from the supernatant using Qiagen RNA Extraction Kit (Qiagen Cat #74182) and the target mRNA levels were analyzed using qRT-PCR. mRNA levels for PNPLA3, PNPLA5, COL1A1, and PCSK9 were assessed.
# [7] = system: phosphorylated AKT (pAKT/AKT); test: Western blot of phosphorylated AKT in human hepatocytes; format: cell-based; conditions: 3 μM; for phosphorylated AKT (pAKT/AKT) over time (in words): 35 min to 20 hrs, relative to DMSO control; for pAKT (473)/AKT: human hepatocytes, mTORC2 pathway, time point not stated
# Method: (§3) Levels of phosphorylated S6, AKT, and NDRG1 proteins were determined as compared to total S6, AKT, and NDRG1 protein. PNPLA3 mRNA expression was quantified and normalized to housekeeping gene GUSB.
# [8] = system: PNPLA3 mRNA in mouse liver; test: High sucrose diet mouse pharmacology study, liver PNPLA3 mRNA; format: in vivo; conditions: for PNPLA3 liver mRNA after exclusion of outliers and re-analysis (in words) / PNPLA3 liver mRNA, dose titration (in words): 6 hours post dose; for PNPLA3 liver mRNA, dose titration (in words): decreasing doses QD oral gavage four days
# Method: LY2157299 was also tested in vivo. C57BL/6J mice were divided into […]. Each group had 6 male mice. […] Groups 1-10 received food throughout the dosing period. […] Eyes were also collected for groups 11-14.
# Mouse liver tissues were pulverized in liquid nitrogen and aliquoted into small microtubes. TRIzol (Invitrogen Cat #15596026) was added to the tubes to facilitate cell lysis from tissue samples. The TRIzol solution containing the disrupted tissue was then centrifuged and the supernatant phase was collected. Total RNA was extracted from the supernatant using Qiagen RNA Extraction Kit (Qiagen Cat#74182) and the PNPLA3 mRNA levels were analyzed using qRT-PCR.
# as §1, §2
# [9] = system: phosphorylated NDRG1 (pNDRG1/NDRG1); test: Western blot of phosphorylated NDRG1 in human hepatocytes; format: cell-based; conditions: 3 μM, mTORC2 pathway, time point not stated
# Method: as §3
# [10] = system: PNPLA5 mRNA in mouse liver; test: High sucrose diet mouse dose response study, liver PNPLA5 mRNA; format: in vivo; conditions: HS diet mice, 6 hours post dose
# Method: as §1, §2
# [11] = system: mTOR signaling of phospho-4E-BP1; conditions: cited from earlier work
# PCSK9 mRNA = test: qRT-PCR of PCSK9 mRNA in primary hepatocytes; format: cell-based, human; conditions: donor 4178, 3 μM, relative to GUSB
# [12] = system: phosphorylated S6 (pS6/S6); test: Western blot of phosphorylated S6 in human hepatocytes; format: cell-based; conditions: 3 μM; for phosphorylated S6 (pS6/S6) over time (in words): 35 min to 20 hrs, relative to DMSO control; for pS6/S6: human hepatocytes, mTORC1 pathway, time point not stated
# Method: as §3
# [13] = HS diet mice, QD oral gavage four days, OSI-027 50 mg/kg, PF-04691502 10 mg/kg
structure (smiles),measurement,setting,value
COc1cccc2cc(-c3nc([C@H]4CC[C@H](C(=O)O)CC4)n4ncnc(N)c34)[nH]c12 [OSI-027],Relative PNPLA3 mRNA levels,"PNPLA3 mRNA [1]; mouse hepatocytes, 1 μM, normalized to ACTB",0.24 ± 0.12
same,"ANGPTL3 liver mRNA, dose titration (in words)",[2],dose dependent decrease
same,TG (nmol/ug protein) (±Standard Deviation),[3]; 0.33 μM,0.24 ± 0.02828 nmol/ug protein
same,TG (nmol/ug protein) (±Standard Deviation),[3]; 1 μM,0.235 ± 0.03535 nmol/ug protein
same,triglyceride content (in words),[3],reduced triglyceride content in HepG2 cells
same,serum glucose (in words),"[4]; 10 mg/kg, 5 mg/kg, and 2 mg/kg",no significant changes in serum glucose or serum insulin levels
same,serum glucose (in words),[4]; 25 mg/kg,significant increased
same,Relative PNPLA3 mRNA expression,"PNPLA3 mRNA [5]; 0.04 uM, Table 36 (cell type not given)",1.071
same,Relative PNPLA3 mRNA expression,"PNPLA3 mRNA [5]; 0.122 uM, Table 36",0.795
same,Relative PNPLA3 mRNA expression,"PNPLA3 mRNA [5]; 0.37 uM, Table 36",0.427
same,Primary Stellate cells PNPLA3 (fold change in mRNA expression),"PNPLA3 mRNA [5]; 3 μM, relative to GAPDH",0.57
same,Relative PNPLA3 mRNA expression,"PNPLA3 mRNA [5]; 3.3 uM, Table 36",0.262
same,Relative PNPLA3 level vs Untreated (±Standard Deviation),"PNPLA3 mRNA [5]; (I/I) homozygous human stellate cells, 0.00045 uM",1.25 ± 0.10
same,Relative PNPLA3 level vs Untreated (±Standard Deviation),"PNPLA3 mRNA [5]; (I/I) homozygous human stellate cells, 0.012 uM",0.89 ± 0.05
same,Relative PNPLA3 level vs Untreated (±Standard Deviation),"PNPLA3 mRNA [5]; (I/I) homozygous human stellate cells, 0.037 uM",0.97 ± 0.12
same,Relative PNPLA3 level vs Untreated (±Standard Deviation),"PNPLA3 mRNA [5]; (I/I) homozygous human stellate cells, 0.33 uM",0.57 ± 0.05
same,Relative PNPLA3 level vs Untreated (±Standard Deviation),"PNPLA3 mRNA [5]; (I/I) homozygous human stellate cells, 1 uM",0.62 ± 0.09
same,Relative PNPLA3 level vs Untreated (±Standard Deviation),"PNPLA3 mRNA [5]; (M/M) homozygous human stellate cells, 0.00045 uM",0.96 ± 0.12
same,Relative PNPLA3 level vs Untreated (±Standard Deviation),"PNPLA3 mRNA [5]; (M/M) homozygous human stellate cells, 0.012 uM",0.92 ± 0.12
same,Relative PNPLA3 level vs Untreated (±Standard Deviation),"PNPLA3 mRNA [5]; (M/M) homozygous human stellate cells, 0.037 uM",1.08 ± 0.04
same,Relative PNPLA3 level vs Untreated (±Standard Deviation),"PNPLA3 mRNA [5]; (M/M) homozygous human stellate cells, 0.33 uM",0.63 ± 0.03
same,Relative PNPLA3 level vs Untreated (±Standard Deviation),"PNPLA3 mRNA [5]; (M/M) homozygous human stellate cells, 1 uM",0.60 ± 0.05
same,EC50,"PNPLA3 mRNA [5]; Homo sapiens, PNPLA3 dose-response, Stellate cell (M/M)",62 nM
same,PNPLA3 expression in stellate cells from different donors (in words),PNPLA3 mRNA [5],effectively decreased PNPLA3 expression in a dose-dependent manner
same,"PCSK9 liver mRNA, dose titration (in words)",[6],dose dependent decrease
same,phosphorylated AKT (pAKT/AKT) over time (in words),[7],decreased at 4.5 hours
same,pAKT (473)/AKT,[7],0.06
same,PNPLA3 liver mRNA after exclusion of outliers and re-analysis (in words),[8],more significant dose dependent decrease in PNPLA3 mRNA
same,"PNPLA3 liver mRNA, 6 hours post-dose (in words)",[8]; [13],reduced PNPLA3 mRNA
same,"PNPLA3 liver mRNA, 12 hours post-dose (in words)","[8]; HS diet mice, QD oral gavage four days, OSI-027 50 mg/kg, PF-04691502 10 mg/kg, LY2157299 75 mg/kg",reduced PNPLA3 mRNA
same,"PNPLA3 liver mRNA, dose titration (in words)",[8]; HS diet mice,dose dependent decrease
same,p-NDRG1/NDRG1,[9],0.46
same,"PNPLA5 liver mRNA, dose titration (in words)",[10],dose dependent decrease
same,IC50,[11],1000 nM
same,Primary Hepatocytes 4178 PCSK9 (fold change in mRNA expression),PCSK9 mRNA,0.69
same,phosphorylated S6 (pS6/S6) over time (in words),[12],decreased at 1 hour
same,pS6/S6,[12],0.06
COc1ccc(-c2cc3c(C)nc(N)nc3n([C@H]3CC[C@H](OCCO)CC3)c2=O)cn1 [PF-04691502],mrna remaining at 1 µM,"PNPLA3 mRNA [1]; Hepatocyte, Mouse hepatocytes, 1 uM, read-out: PNPLA3 mRNA remaining after treatment compared to untreated cells",43%
same,mrna remaining at 10 µM,"PNPLA3 mRNA [1]; Hepatocyte, Mouse hepatocytes, 10 uM, read-out: PNPLA3 mRNA remaining after treatment compared to untreated cells",20%
same,"ANGPTL3 liver mRNA, dose titration (in words)",[2],"decrease in COL1A1, ANGLPTL3 and PCSK9 mRNA"
same,serum glucose (in words),[4]; 1 mg/kg,moderate increased insulin and glucose levels
same,serum glucose (in words),"[4]; 10 mg/kg, 5 mg/kg, and 2 mg/kg",significant serum glucose and serum insulin increases
same,mrna remaining at 1 µM,"PNPLA3 mRNA [5]; Human Stellate, 1 uM, read-out: PNPLA3 mRNA remaining after treatment compared to untreated cells",20%
same,mrna remaining at 10 µM,"PNPLA3 mRNA [5]; Human Stellate, 10 uM, read-out: PNPLA3 mRNA remaining after treatment compared to untreated cells",35%
same,PNPLA3 expression in stellate cells from different donors (in words),PNPLA3 mRNA [5],effectively decreased PNPLA3 expression in a dose-dependent manner
same,"PCSK9 liver mRNA, dose titration (in words)",[6],"decrease in COL1A1, ANGLPTL3 and PCSK9 mRNA"
same,phosphorylated AKT (pAKT/AKT) over time (in words),[7],decreased at 20 hours
same,pAKT (473)/AKT,[7],0.06
same,PNPLA3 liver mRNA after exclusion of outliers and re-analysis (in words),[8],greater decrease in PNPLA3 mRNA
same,"PNPLA3 liver mRNA, 6 hours post-dose (in words)",[8]; [13],reduced PNPLA3 mRNA at 6 hours post-dose
same,"PNPLA3 liver mRNA, dose titration (in words)",[8]; HS diet mice,dose dependent decrease in PNPLA3 and PNPLA5 mRNA
same,p-NDRG1/NDRG1,[9],0.46
same,"PNPLA5 liver mRNA, dose titration (in words)",[10],dose dependent decrease in PNPLA3 and PNPLA5 mRNA
same,phosphorylated S6 (pS6/S6) over time (in words),[12],decreased at 1 hour
same,pS6/S6,[12],0.06
